Experimental data from PMC9860315, “Neuronally produced betaine acts via a ligand-gated ion channel to control behavioral states” (Proceedings of the National Academy of Sciences of the …, 2022).

How the values were obtained:
LGC-41 [1] = molecular target: T1, LGC-41 (Caenorhabditis elegans, UniProt Q18518); assay: two-electrode voltage clamp in Xenopus oocytes, block of current induced by […] betaine; assay type: cell-based
T1 construct: homomeric channel, cDNA from wild-type N2
T1 sequence (Q18518 26-540): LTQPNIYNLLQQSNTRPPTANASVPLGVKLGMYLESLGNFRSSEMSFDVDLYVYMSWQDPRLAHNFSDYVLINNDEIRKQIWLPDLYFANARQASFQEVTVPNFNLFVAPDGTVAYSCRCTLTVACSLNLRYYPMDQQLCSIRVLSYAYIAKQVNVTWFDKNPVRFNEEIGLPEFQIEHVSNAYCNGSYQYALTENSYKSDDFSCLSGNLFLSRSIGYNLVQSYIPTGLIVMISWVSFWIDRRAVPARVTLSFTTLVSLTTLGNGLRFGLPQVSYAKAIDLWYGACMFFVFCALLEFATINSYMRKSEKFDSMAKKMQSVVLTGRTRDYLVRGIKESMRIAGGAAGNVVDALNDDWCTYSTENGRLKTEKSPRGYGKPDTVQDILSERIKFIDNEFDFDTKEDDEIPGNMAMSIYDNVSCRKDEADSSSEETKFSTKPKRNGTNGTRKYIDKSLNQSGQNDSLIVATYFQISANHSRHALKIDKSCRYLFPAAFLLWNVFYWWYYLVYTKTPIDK

LGC-41 [2] = molecular target: T1, LGC-41; assay: two-electrode voltage clamp in Xenopus oocytes, agonist dose-response; assay type: cell-based

Compound	IC50 (LGC-41 [1])	EC50 (LGC-41 [2])
O=C1C[C@@H]2OCC=C3CN4CC[C@]56c7ccccc7N1[C@H]5[C@H]2[C@H]3C[C@H]46 [strychnine]	973 µM	
C[N+](C)(C)CC(=O)O [betaine]		211 µM
C=C(C)[C@@H]1[C@H]2OC(=O)[C@@H]1[C@]1(O)C[C@H]3OC34C(=O)O[C@H]2[C@@]41C.CC(C)(O)[C@@H]1[C@H]2OC(=O)[C@@H]1[C@]1(O)C[C@H]3OC34C(=O)O[C@H]2[C@@]41C (stereo partly drawn) [picrotoxin]	144 µM	
